Where two headings read alike, the source gives them in different places.
Key:
[1] = system: Mite; settings: Dose 1 ml/gm/lit.; 48 hrs
[2] = system: Mealy Bug; assay: Green house effect on mealy bugs, cotton plants (Ex. 24); settings: in vivo
[3] = system: Thrips; assay: Greenhouse effect on thrips, cotton plants (Ex. 27); settings: in vivo
[4] = system: Aphid; settings: 48 h, 1 mL or g/L
[5] = system: Helicoverpa armigera; assay: In vitro bio-efficacy against Helicoverpa armigera (Ex. 17); settings: in vivo
[6] = system: chili seedlings; assay: Response of chili plants, greenhouse growth (Ex. 31); format: in vivo
[7] = system: Spodoptera litura; assay: Controlled conditions, Spodoptera litura on cabbage plants (Ex. 26); settings: in vivo
[8] = system: Thrips; settings: 48 h
[9] = system: Spodoptera litura; settings: 72 h, 1 mL or g/L
[10] = system: Thrips; assay: whole plant or invertebrate; settings: in Gossypium hirsutum, 48 h
[11] = system: Aphid
[12] = system: Aphid; assay: whole plant or invertebrate; settings: 48 h
[13] = cited from earlier work
[14] = system: tomato seedlings; assay: Response of tomato plants, greenhouse growth (Ex. 30); format: in vivo; settings: tomato seedlings, dose 1 ml/gm/lit
[15] = system: Mite; assay: Green house effect on mite, okra plants (Ex. 23); settings: in vivo
[16] = system: Alternaria alternata; assay: Alternaria leaf spot/blight on inoculated tomato plants (Ex. 28); format: in vivo; settings: tomato plants, Alternaria alternata; after 7 days; dose 1 ml/gm/lit
[17] = system: Mealy Bug; assay: In vitro bio-efficacy against mealy bug (Ex. 16); settings: in vivo
[18] = system: Alternaria alternata; assay: In vitro poisoned food technique against fungus (Ex. 20); format: cell-based; settings: poisoned food technique, PDA medium, dose 1 ml/gm/lit., after seven days
[19] = system: Spodoptera litura; assay: whole plant or invertebrate; settings: 72 h
[20] = system: Helicoverpa armigera; assay: Controlled conditions, Helicoverpa armigera on chickpea plants (Ex. 25); settings: in vivo
[21] = system: Thrips; settings: 48 h, 1 mL or g/L
[22] = chili seedlings, dose 1 ml/gm/lit, 5th day after application
[23] = chili seedlings, dose 1 ml/gm/lit, 10th day
[24] = chili seedlings, dose 1 ml/gm/lit, 10th day after application
[25] = read-out: % Corrected Mortality at 48 Hrs.
[26] = read-out: % Mortality at 48 Hrs.
[27] = Table 13, descriptive, no test described

With `C=CCc1ccc(OC)c(O)c1` [Chavibetol] the “% Corrected Mortality at 48 Hrs.” value [1] was 18.92%, the “% Mortality at 48 Hrs.” value [1] was 25.00% and the “% Corrected Mortality at 48 Hrs.” value [2] was 38.89%. The “% Mortality at 48 Hrs.” value [2] was 45.00%, the “% Corrected Mortality at 48 Hrs.” value [3] was 47.22% and the “Total No. of dead insect at 48 Hrs.” value [4] was 55.00. For the same compound, the “% Corrected Mortality at 72 Hrs.” value [5] was 42.50%, the “% Mortality at 72 Hrs.” value [5] was 42.50% and the “CCI Pre” value [6] was 9.82. For the same compound, the “Plant Height (cm) Pre” value [6] was 4.39 cm, the “CCI 5th Day” value [6, 22] was 14.58 and the “Plant Height (cm) 5th Day” value [6, 22] was 5.07 cm. For the same compound, the “CCI % Increase over pre on 10th Day” value [6, 23] was 52.55%, the “Plant Height % Increase over pre on 10th Day” value [6, 23] was 59.00% and the “Root Lenght (cm) 10th Day” value [6, 23] was 3.60 cm. For the same compound, the “Stem Girth % Increase over pre on 10th Day” value [6, 23] was 45.45%, the “CCI 10th Day” value [6, 24] was 14.98 and the “Plant Height (cm) 10th Day” value [6, 24] was 6.98 cm. For the same compound, the “Root Lenght % Increase over control” value ([6]; chili seedlings, dose 1 ml/gm/lit, 10th day, vs water control) was 31.63%, the “% Corrected Mortality at 72 Hrs.” value [7] was 41.05% and the “% Mortality at 72 Hrs.” value [7] was 44.00%. The “Total No. of dead insect at 48 Hrs.” value [8] was 52.50, the “Total No. of dead insect at 72 Hrs.” value [9] was 4.25 and the mortality at 1 mL or g/L [10, 25] was 45.7%. The mortality at 1 mL or g/L [10, 26] was 52.5%, the “Total No. of dead insect at 48 Hrs.” value ([11]; 48 h) was 5.50 and the “% Corrected Mortality at 48 Hrs.” value ([11]; Dose 1 ml/gm/lit., 48 hrs) was 48.57%. For the same compound, the mortality at 1 mL or g/L [12, 25] was 47.1%, the mortality at 1 mL or g/L [12, 26] was 55% and the “Antioxidant Activity - Mode of action” value [13, 27] was “Increasing Antioxidative”. The “Bactericidal Activity - Mode of action” value [13, 27] was “Inhibit the reproduction”, the “Insecticidal Activities - Mode of action” value [13, 27] was “Repellent” and the “Phytotonic Effect” value ([13]; Table 13, effect on plants, descriptive) was “trigger seed”. For the same compound, the “Plant Height 5th Day” value ([14]; 5th day after application) was 7.26 cm, the “Stem Girth 5th Day” value ([14]; 5th day after application) was 1.49 mm and the “Plant Height 10th Day” value ([14]; 10th day after application) was 8.34 cm. The “Stem Girth 10th Day” value ([14]; 10th day after application) was 2.25 mm, the “Plant Height % Increase over pre on 10th Day” value ([14]; 10th day) was 36.50% and the “Stem Girth % Increase over pre on 10th Day” value ([14]; 10th day) was 60.71%. The “CCI 5th Day” value ([14]; 5th day after application) was 14.68, the “CCI % Increase over pre on 10th Day” value ([14]; 10th day) was 32.22% and the “Root Length (cm) 10th Day” value ([14]; 10th day) was 4.69 cm. For the same compound, the “CCI 10th Day” value ([14]; 10th day after application) was 16.58, the “Root Length % Increase over control” value ([14]; 10th day, vs water control) was 41.03% and the “% Corrected Mortality at 48 Hrs.” value [15] was 18.42%. For the same compound, the “% Mortality at 48 Hrs.” value [15] was 22.50%, the “% Disease reduction over Control” value [16] was 47.11% and the “% Corrected Mortality at 48 Hrs.” value [17] was 36.84%. The “% Mortality at 48 Hrs.” value [17] was 40.00%, the “Mean colony Diameter (mm)” value [18] was 55.50 mm and the inhibition of growth at 1 mL or g/L ([18]; vs untreated control, read-out: % Inhibition of growth) was 36.9%. The mortality at 1 mL or g/L ([19]; read-out: % Corrected Mortality at 72 Hrs.) was 39.5%, the mortality at 1 mL or g/L ([19]; read-out: % Mortality at 72 Hrs.) was 42.5% and the “% Corrected Mortality at 72 Hrs.” value [20] was 47.50%. For the same compound, the “% Mortality at 72 Hrs.” value [20] was 47.50% and the “Total No. of dead insect at 48 Hrs.” value [21] was 5.25.

— US20250351832A1, “PHYTOCHEMICALS AS BIOPESTICIDES AND BIOSTIMULANTS” (KAY BEE BIO ORGANICS PVT. LTD., priority 2024, published 2025)
